Experiments:
[1] = system: A-498 renal cell carcinoma cells; test: qRT-PCR, combination with STING agonist ADU-S100, A-498 cells; format: cell-based, Human; details: 2 μM Compound 1 or 2, 50 μM ADU-S100, 24 h
Protocol: A-498 cells were grown in Minimal Essential Medium containing 10% fetal bovine serum. Cells were then incubated for 2 days at 37 degrees Celsius, 5% CO2, and 95% humidity. A-498 cells were treated with DMSO control, 2 μM Compound 1 or 2 μM Compound 2 in combination with 50 μM STING agonist ADU-S100 for 24 h. Cells were washed with PBS and RNA was isolated using the PureLink RNA kit (#12183018A, Thermo Fisher Scientific) according to the manufacturer's protocol. Genomic DNA was removed using DNA-binding columns (RNeasy plus kit, #74134, Qiagen) and/or DNase treatment (#12185010, Thermo Fisher Scientific). RNA was quantified using NanoDrop (Thermo Fisher Scientific) and 50 ng/μL RNA was used for cDNA synthesis with SuperScript IV VILO Master Mix (#11756050, Thermo Fisher Scientific). Quantitative RT-PCR (qRT-PCR) was run with diluted cDNA (1:25 or 1:12.5), PowerUp SYBR Green Master Mix (#A25741, Thermo Fisher Scientific), and 200 nM primers (see below) on a CFX Connect RT-PCR system (BioRad). Data was analyzed using the ΔΔCT method. Results are mean±SEM of three independent experiments.

[2] = system: 786-O renal cell carcinoma cells; test: Cytokine secretion assay, combination with ADU-S100, 786-O cells; format: cell-based, human; details: 2 μM Compound 1 or 2, 50 μM ADU-S100, 24 h
Protocol: (§1) 786-O cells were treated with DMSO control, 2 μM Compound 1 or 2 μM Compound 2 in combination with 50 μM STING agonist ADU-S100 for 24 h. Cell culture medium was centrifuged at 1600 rpm for 10 min at 4° C. and obtained supernatant stored at −80° C. Cytokine levels were quantified using following Meso Scale Discovery (MSD) assays: human R-PLEX RANTES/CCL5 (#F21ZN), U-PLEX CXCL10/IP-10 (#K151UFK). Assays were run on the SECTOR Quickplex Imager and analyzed using Discovery Workbench version 4.0 (MSD). Low concentrations of human IFNβ were determined using High Sensitivity IFN Beta ELISA Kit, (PBL assay science, #41415-1).

[3] = system: A-498 renal cell carcinoma cells; test: Cytokine secretion assay, combination with ADU-S100, A-498 cells; format: cell-based, human; details: 2 μM Compound 1 or 2, 50 μM ADU-S100, 24 h
Protocol: as §1, with “A-498” for “786-O”

[4] = system: 786-O renal cell carcinoma cells; test: qRT-PCR, combination with STING agonist ADU-S100, 786-O cells; format: cell-based, Human; details: 2 μM Compound 1 or 2, 50 μM ADU-S100, 24 h
Protocol: 786-O cells were grown in RPMI-1640 medium containing 10% fetal bovine serum. Cells were then incubated for 2 days at 37 degrees Celsius, 5% CO2, and 95% humidity. […] cells were treated with DMSO control, 2 μM Compound 1 or 2 μM Compound 2 in combination with 50 μM STING agonist ADU-S100 for 24 h. Cells were washed with PBS and RNA was isolated using the PureLink RNA kit (#12183018A, Thermo Fisher Scientific) according to the manufacturer's protocol. Genomic DNA was removed using DNA-binding columns (RNeasy plus kit, #74134, Qiagen) and/or DNase treatment (#12185010, Thermo Fisher Scientific). RNA was quantified using NanoDrop (Thermo Fisher Scientific) and 50 ng/μL RNA was used for cDNA synthesis with SuperScript IV VILO Master Mix (#11756050, Thermo Fisher Scientific). Quantitative RT-PCR (qRT-PCR) was run with diluted cDNA (1:25 or 1:12.5), PowerUp SYBR Green Master Mix (#A25741, Thermo Fisher Scientific), and 200 nM primers (see below) on a CFX Connect RT-PCR system (BioRad). Data was analyzed using the ΔΔCT method. Results are mean±SEM of three independent experiments.

B16-F10 melanoma cells = test: qRT-PCR, combination with ADU-S100, B16-F10 cells; format: cell-based, Murine; details: for IFNB1 mRNA expression: 2 μM Compound 1 or 2, 10 μM ADU-S100, 4 h; for CCL5 mRNA expression / CXCL10 mRNA expression: 2 μM Compound 1 or 2, 10 μM ADU-S100, 24 h
Protocol: B16-F10 cells were grown in DMEM/F12 medium containing 10% fetal bovine serum. Cells were then incubated for 2 days at 37 degrees Celsius, 5% CO2, and 95% humidity. […] cells were reversely transfected with scrambled siRNA control (siSCR) or siRNA targeting STING (siSTING). […] Cells were washed with PBS and RNA was isolated using the PureLink RNA kit (#12183018A, Thermo Fisher Scientific) according to the manufacturer's protocol. Genomic DNA was removed using DNA-binding columns (RNeasy plus kit, #74134, Qiagen) and/or DNase treatment (#12185010, Thermo Fisher Scientific). RNA was quantified using NanoDrop (Thermo Fisher Scientific) and 50 ng/μL RNA was used for cDNA synthesis with SuperScript IV VILO Master Mix (#11756050, Thermo Fisher Scientific). Quantitative RT-PCR (qRT-PCR) was run with diluted cDNA (1:25 or 1:12.5), PowerUp SYBR Green Master Mix (#A25741, Thermo Fisher Scientific), and 200 nM primers (see below) on a CFX Connect RT-PCR system (BioRad). Data was analyzed using the ΔΔCT method. Results are mean±SEM of three independent experiments.

Structure (SMILES) | CCL5 mRNA expression [1] | CXCL10 mRNA expression [1] | IFNB1 mRNA expression [1] | CCL5 secretion [2] | CXCL10 secretion [2] | IFNβ secretion [2] | CCL5 secretion [3] | CXCL10 secretion [3] | IFNβ secretion [3] | CCL5 mRNA expression [4] | CXCL10 mRNA expression [4] | IFNB1 mRNA expression [4] | IFNB1 mRNA expression (B16-F10 melanoma cells) | CCL5 mRNA expression (B16-F10 melanoma cells) | CXCL10 mRNA expression (B16-F10 melanoma cells)
Nc1ncnc2c1ncn2[C@@H]1O[C@@H]2COP(=O)([S-])O[C@@H]3[C@H](O)[C@@H](COP([O-])(=S)O[C@H]2[C@H]1O)O[C@H]3n1cnc2c(N)ncnc21.[Na+].[Na+] (stereo partly drawn) [ADU-S100, reference compound] | increased | increased | no effect | significantly increased | significantly increased | mild effect | mildly increased | mildly increased | no effect | increased | no effect | no effect | did not increase | did increase | did increase
C[C@@H]1COCCN1c1cc(=O)n2c(n1)N(Cc1cncc(Cl)c1)[C@H](C(F)(F)F)CC2 [Compound 2, (S)-9-((5-chloropyridin-3-yl)methyl)-2-((R)-3-methylmorpholino)-8-(trifluoromethyl)-6,7,8,9-tetrahydro-4H-pyrimido[1,2-a]pyrimidin-4-one] | mildly increased | mildly increased | mildly increased | increased | increased | increased | increased | increased | increased | increased | increased | increased | did not increase | mildly increase | mildly increase
C[C@@H]1COCCN1c1cc(N2CCCC[C@@H]2C(F)(F)F)[nH]c(=O)c1 [Compound 1, 4-((R)-3-methylmorpholino)-6-((R)-2-(trifluoromethyl)piperidin-1-yl)pyridin-2(1H)-one] | mildly increased | mildly increased | mildly increased | increased | increased | increased | increased | increased | increased | increased | increased | increased | did not increase | mildly increase | mildly increase
